Measurements from patent US8609686B2, “Substituted azabicyclic compounds and the use thereof” (Bayer Intellectual Property GmbH, priority 2007, dated 2013).
pEC50: −log10 of the molar value.

How the values were obtained:
Assay type in all cases: cell-based
adenosine A2b receptor = molecular target: T1, adenosine A2b receptor (Homo sapiens, UniProt P29275); assay: Indirect determination of adenosine agonism by way of gene expression (cAMP-dependent luciferase reporter), A2b cells; settings: stably transfected CHO cells; 50% of the maximum stimulation of luciferase
T1 construct: expressed in transfected cells; host or cells: CHO (Chinese Hamster Ovary)
T1 sequence (P29275 1-332): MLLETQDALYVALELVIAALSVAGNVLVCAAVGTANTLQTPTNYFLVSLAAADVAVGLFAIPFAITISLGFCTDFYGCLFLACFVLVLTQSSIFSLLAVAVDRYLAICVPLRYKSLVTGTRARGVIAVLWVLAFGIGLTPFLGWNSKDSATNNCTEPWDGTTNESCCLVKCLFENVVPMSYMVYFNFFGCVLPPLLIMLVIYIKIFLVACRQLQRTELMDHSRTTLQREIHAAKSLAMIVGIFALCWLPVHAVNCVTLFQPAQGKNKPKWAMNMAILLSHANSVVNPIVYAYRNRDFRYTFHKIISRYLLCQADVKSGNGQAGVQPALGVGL
Excerpt: (§1) B-1. Indirect determination of the adenosine agonism by way of gene expression Cells of the CHO (Chinese Hamster Ovary) permanent line are transfected stably with the cDNA for the adenosine receptor subtypes A1, A2a and A2b. The adenosine A1 receptors are coupled to the adenylate cyclase by way of Gi proteins, while the adenosine A2a and A2b receptors are coupled by way of Gs proteins. In correspondence with this, the formation of cAMP in the cell is inhibited or stimulated, respectively. After that, expression of the luciferase is modulated by way of a cAMP-dependent promoter. The luciferase test is optimized, with the aim of high sensitivity and reproducibility, low variance and good suitability for implementation on a robot system, by varying several test parameters, such as cell density, duration of the growth phase and the test incubation, forskolin concentration and medium composition. The following test protocol is used for pharmacologically characterizing cells and for the robot-assisted substance screening:
(§2) The stock cultures are grown, at 37° C. and under 5% CO2, in DMEM/F12 medium containing 10% FCS (fetal calf serum) and in each case split 1:10 after 2-3 days. Test cultures are seeded in 384-well plates with 2000 cells per well and grown at 37° C. for approx. 48 hours. The medium is then replaced with a physiological sodium chloride solution (130 mM sodium chloride, 5 mM potassium chloride, 2 mM calcium chloride, 20 mM HEPES, 1 mM magnesium chloride hexahydrate, 5 mM sodium bicarbonate, pH 7.4). The substances to be tested, which are dissolved in DMSO, are pipetted into the test cultures (maximum final concentration of DMSO in the test mixture: 0.5%) in a dilution series of from 5×10^−11M to 3×10^−6M (final concentration). 10 minutes later, forskolin is added to the A1 cells and all the cultures are subsequently incubated at 37° C. for four hours. After that, 35 μl of a solution which is composed of 50% lysis reagent (30 mM disodium hydrogenphosphate, 10% glycerol, 3% TritonX100, 25 mM TrisHCl, 2 mM dithiotreitol (DTT), pH 7.8) and 50% luciferase substrate solution (2.5 mM ATP, 0.5 mM luciferin, 0.1 mM coenzyme A, 10 mM tricine, 1.35 mM magnesium sulfate, 15 mM DTT, pH 7.8) are added to the test cultures, which are shaken for approx. 1 minute and the luciferase activity is measured using a camera system. The EC50 values are determined, i.e., the concentrations at which 50% of the luciferase response is inhibited in the case of the A1 cell, and, respectively, 50% of the maximum stimulation with the corresponding substance is achieved in the case of the A2b and A2a cells. […] Pharmacol., 357, 1-9 (1998)).
(§3) Table 1 below lists the EC50 values of representative working examples for the receptor stimulation on adenosine A1, A2a and A2b receptor subtypes: […]

adenosine A2a receptor = molecular target: T2, adenosine A2a receptor (Homo sapiens, UniProt P29274); assay: Indirect determination of adenosine agonism by way of gene expression (cAMP-dependent luciferase reporter), A2a cells; settings: stably transfected CHO cells; 50% of the maximum stimulation of luciferase
T2 construct: expressed in transfected cells; host or cells: CHO (Chinese Hamster Ovary)
T2 sequence (P29274 whole entry): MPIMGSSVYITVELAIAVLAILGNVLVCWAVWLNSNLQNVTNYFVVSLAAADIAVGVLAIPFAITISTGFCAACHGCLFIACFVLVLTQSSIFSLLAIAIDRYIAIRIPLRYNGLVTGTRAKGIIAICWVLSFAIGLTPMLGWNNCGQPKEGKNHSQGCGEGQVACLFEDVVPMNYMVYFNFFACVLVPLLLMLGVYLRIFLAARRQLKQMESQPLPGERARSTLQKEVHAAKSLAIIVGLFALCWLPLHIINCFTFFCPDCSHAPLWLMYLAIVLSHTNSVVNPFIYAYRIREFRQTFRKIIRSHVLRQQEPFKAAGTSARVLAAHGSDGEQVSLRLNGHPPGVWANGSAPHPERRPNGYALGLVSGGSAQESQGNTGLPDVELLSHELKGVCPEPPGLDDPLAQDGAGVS
Excerpt: as §1, §2, §3

adenosine A1 receptor = molecular target: T3, adenosine A1 receptor (Homo sapiens, UniProt P30542); assay: Indirect determination of adenosine agonism by way of gene expression (cAMP-dependent luciferase reporter), A1 cells; settings: stably transfected CHO cells; 1 μM forskolin; concentration at which 50% of the luciferase response is inhibited
T3 construct: expressed in transfected cells; host or cells: CHO (Chinese Hamster Ovary)
T3 sequence (P30542 1-326): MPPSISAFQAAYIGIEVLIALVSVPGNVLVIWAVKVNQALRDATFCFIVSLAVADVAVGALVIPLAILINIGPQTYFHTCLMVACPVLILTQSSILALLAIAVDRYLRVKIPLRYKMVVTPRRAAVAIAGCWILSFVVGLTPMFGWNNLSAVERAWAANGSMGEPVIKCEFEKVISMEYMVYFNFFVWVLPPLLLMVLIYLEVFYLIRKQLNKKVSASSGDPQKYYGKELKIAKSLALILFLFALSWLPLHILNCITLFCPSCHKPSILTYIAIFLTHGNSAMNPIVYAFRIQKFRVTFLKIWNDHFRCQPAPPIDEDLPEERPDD
Excerpt: as §1, §2, §3

## COC(=O)c1c(N)c2c(-c3ccc(OCCO)cc3)c(C#N)c(SCc3ccc(OC)nc3)nc2n1C [Example 5]
Adenosine A2b receptor
  pEC50: 6.00
Adenosine A2a receptor
  pEC50: 6.70
Adenosine A1 receptor
  EC50: 1.5 nM

## COC(=O)c1c(N)c2c(-c3ccc(OC[C@@H](O)CO)cc3)c(C#N)c(SCc3csc(-c4ccc(Cl)cc4)n3)nc2n1C [Example 12]
Adenosine A2b receptor
  pEC50: < 5.52
Adenosine A2a receptor
  pEC50: 5.80
Adenosine A1 receptor
  EC50: 11 nM

## COC(=O)c1c(N)c2c(-c3ccccc3)c(C#N)c(SCc3csc(-c4ccc(Cl)cc4)n3)nc2n1C [Example 3]
Adenosine A2b receptor
  pEC50: < 5.52
Adenosine A2a receptor
  pEC50: < 5.52
Adenosine A1 receptor
  EC50: 5.3 nM

## COC(=O)c1c(N)c2c(-c3ccc(OC[C@@H](O)CO)cc3)c(C#N)c(SCc3coc(-c4ccc(Cl)cc4)n3)nc2n1C [Example 11]
Adenosine A2b receptor
  pEC50: < 5.52
Adenosine A2a receptor
  pEC50: 6.22
Adenosine A1 receptor
  EC50: 14 nM

## CNC(=O)c1c(N)c2c(-c3ccc(OCCO)cc3)c(C#N)c(SCc3csc(-c4ccc(Cl)cc4)n3)nc2n1C [Example 7]
Adenosine A2b receptor
  pEC50: 6.18
Adenosine A2a receptor
  pEC50: 6.46
Adenosine A1 receptor
  EC50: 5 nM

## COC(=O)c1c(N)c2c(-c3ccc(OCCO)cc3)c(C#N)c(SCc3cccc(C(N)=O)c3)nc2n1C [Example 15, Methyl 3-amino-6-[(3-carbamoylbenzyl)thio]-5-cyano-4-[4-(2-hydroxyethoxy)phenyl]-1-methyl-1H-pyrrolo[2,3-b]pyridine-2-carboxylate]
Adenosine A2b receptor
  pEC50: 5.88
Adenosine A2a receptor
  pEC50: 6.36
Adenosine A1 receptor
  EC50: 3.7 nM

## COC(=O)c1[nH]c2nc(SCc3csc(-c4ccc(Cl)cc4)n3)c(C#N)c(-c3ccc(OCCO)cc3)c2c1N [Example 17, Methyl 3-amino-6-({[2-(4-chlorophenyl)-1,3-thiazol-4-yl]methyl}thio)-5-cyano-4-[4-(2-hydroxyethoxy)phenyl]-1H-pyrrolo[2,3-b]pyridine-2-carboxylate]
Adenosine A2b receptor
  pEC50: < 5.52
Adenosine A2a receptor
  pEC50: 6.17
Adenosine A1 receptor
  EC50: 3.7 nM

## Cn1c(C(N)=O)c(N)c2c(-c3ccc(OCCO)cc3)c(C#N)c(SCc3csc(-c4ccc(Cl)cc4)n3)nc21 [Example 6]
Adenosine A2b receptor
  pEC50: < 5.52
Adenosine A2a receptor
  pEC50: 5.95
Adenosine A1 receptor
  EC50: 0.3 nM

## COC(=O)c1c(N)c2c(-c3ccc(OCCO)cc3)c(C#N)c(SCc3cccc(C#N)c3)nc2n1C [Example 4]
Adenosine A2b receptor
  pEC50: 6.49
Adenosine A2a receptor
  pEC50: 7.14
Adenosine A1 receptor
  EC50: 3 nM

## N#Cc1c(SCc2csc(-c3ccc(Cl)cc3)n2)nc2[nH]nc(N)c2c1-c1ccc(OCCO)cc1 [Example 21, 3-Amino-6-({[2-(4-chlorophenyl)-1,3-thiazol-4-yl]methyl}sulfanyl)-4-[4-(2-hydroxyethoxy)phenyl]-1H-pyrazolo[3,4-b]pyridine-5-carbonitrile]
Adenosine A2b receptor
  pEC50: < 5.52
Adenosine A2a receptor
  pEC50: < 5.52
Adenosine A1 receptor
  EC50: 10 nM

## COC(=O)Cn1c(C(=O)OC)c(N)c2c(-c3ccc(OCCO)cc3)c(C#N)c(SCc3csc(-c4ccc(Cl)cc4)n3)nc21 [Example 2]
Adenosine A2b receptor
  pEC50: 5.81
Adenosine A2a receptor
  pEC50: 6.82
Adenosine A1 receptor
  EC50: 1.7 nM

## COC(=O)c1c(N)c2c(-c3ccc(OCCO)cc3)c(C#N)c(SCc3csc(-c4ccc(Cl)cc4)n3)nc2n1C [Example 1, Methyl 3-amino-6-({[2-(4-chlorophenyl)-1,3-thiazol-4-yl]methyl}thio)-5-cyano-4-[4-(2-hydroxyethoxy)phenyl]-1-methyl-1H-pyrrolo[2,3-b]pyridine-2-carboxylate]
Adenosine A2b receptor
  pEC50: 6.26
Adenosine A2a receptor
  pEC50: 6.77
Adenosine A1 receptor
  EC50: 0.8 nM

## Cn1c(C(N)=O)c(N)c2c(-c3ccc(OCCO)cc3)c(C#N)c(SCc3cccc(C(N)=O)c3)nc21 [Example 16, 3-Amino-6-[(3-carbamoylbenzyl)thio]-5-cyano-4-[4-(2-hydroxyethoxy)phenyl]-1-methyl-1H-pyrrolo[2,3-b]pyridine-2-carboxamide]
Adenosine A2b receptor
  pEC50: 6.12
Adenosine A2a receptor
  pEC50: 6.48
Adenosine A1 receptor
  EC50: 4.9 nM
